These results are taken from patent US11116739B2, “Fixed dose combinations and formulations comprising ETC1002 and one or more statins and methods of treating or reducing cardiovascular disease” (Esperion Therapeutics, Inc., priority 2015, dated 2021).

What is called Tmax is the time from dosing to the highest level. The NOAEL is the highest dose or exposure tested at which no adverse effect was seen.

Read-outs that look alike come from different tables or passages of the source.

Data set [1] is described as follows: clinical pharmacokinetics of ETC-1002. Type of data set: in vivo, human. As for the experimental part: (§1) The entire clinical program for ETC-1002 (conducted between 2009 and 2015) has included approximately 1000 subjects and patients, with approximately 700 receiving ETC-1002 doses ranging from 2.5 up to 240 mg/day (multiple doses) for up to 12 weeks. There are 15 completed clinical studies (nine Phase 1 and six Phase 2), and integrated data summaries are based on the 6 completed Phase 2 studies.

A short description of data set [2]: Study 1002-012: effect of steady-state ETC-1002 on single-dose PK of simvastatin, pravastatin, rosuvastatin. The method, then: Serial PK blood samples were collected through the morning of Day −3. Starting on Day 1, all subjects received oral ETC-1002, 240 mg, once daily for 16 days. On the morning of Day 12, in addition to ETC-1002, subjects received a single dose of a statin drug, based on their cohort assignment; serial PK blood samples were collected.

Data set [3] deals with rodent models of dyslipidemia. Nature of the data set: primary pharmacology in rodent models of dyslipidemia. Type of data set: in vivo. The method, then:
The primary pharmacology of ETC-1002 was evaluated in several well-characterized and predictive rodent models of dyslipidemia. In these studies, ETC-1002 lowered LDL-C and triglycerides (TGs) and increased high-density lipoprotein cholesterol (HDL-C).

Data set [4] can be described thus: safety pharmacology studies. The conditions noted are these: over the range of exposures intended for clinical studies.
Data set [5] relates to mice, rats, and monkeys. The experiment in a line: oral toxicology studies up to 12 months. Type of data set: in vivo. From the text:
In toxicology studies, evaluations of ETC-1002 in mice, rats, and monkeys in oral studies up to 12 months in duration have been completed. […] Routine clinical laboratory parameters will continue to be monitored carefully in clinical trials.

The nature of data set [6]: pivotal 6-month rat study. The conditions noted are these: both sexes, in vivo, oral, male and female rats, read-out: no-observed-adverse-effect level (NOAEL) dose. The method, then:
(§2) In the pivotal 6-month rat study, the no-observed-adverse-effect level (NOAEL) dose was 30 mg/kg/day in male and female rats and the corresponding area under the curve during 24 hours (AUC0-24) values of the sum of ETC-1002 and ESP15228 were up to 528 μg·hr/mL. In the pivotal 12-month monkey study, the NOAEL dose was 60 mg/kg/day and the corresponding AUC0-24 value of the sum of ETC-1002 and ESP15228 was up to 4478 μg·hr/mL.

A short description of data set [7]: pivotal 12-month monkey study. Particulars: in vivo, oral, read-out: NOAEL dose. The method, then:
as §2

Data set [8] is described as follows: in-vitro and in-vivo genetic toxicology assays.
Data set [9] has as its system major cytochrome P450 (CYP) enzymes. The experiment in a line: in vitro CYP inhibition/induction studies. The conditions noted are these: at clinically relevant plasma concentrations. Type of data set: in vitro ADME.
The subject of data set [10] is major drug transporters. Nature of the data set: in vitro drug transporter inhibition. The class given is in vitro ADME.
The test system of data set [11] is patients. The experiment in a line: integrated analysis of six Phase 2 studies (efficacy). The class given is in vivo, human. As for the experimental part: as §1
A short description of data set [12]: drug interaction with metformin or Ortho-Novum 1/35. The class given is in vivo, human.
Data set [13] can be described thus: food-effect/bioequivalence study. Set-up: species or system human. Particulars: in vivo.
Data set [14] is described as follows: Study 1002-007: effect of ETC-1002 on the PK of atorvastatin. As for the experimental part:
All patients started ETC-1002 at a dose of 60 mg/day, which was up-titrated every 2 weeks to 120 mg/day, then 180 mg/day, then 240 mg/day.

Data set [15] concerns QT/QTc. The experiment in a line: thorough QT/QTc (TQT) study (1002-022). The class given is in vivo, human. Particulars: ETC-1002 240 mg daily for 9 days.
Data set [16] has as its system patients. The experiment in a line: 6 integrated Phase 2 studies (safety, TEAEs, SAEs). The class given is in vivo, human. As for the experimental part: as §1
The greatest number of patients experiencing at least 1 TEAE among ETC-1002-treated groups occurred in the ETC-1002 40-mg dose group (75.6%); this frequency was similar to the frequency of patients experiencing at least 1 TEAE in the placebo group (74.2%).

In the case of `CC(C)(CCCCCC(=O)CCCCCC(C)(C)C(=O)O)C(=O)O` [ESP15228], in data set [1] (human, in vivo), the Cmax dose proportionality result was “increase in proportion to increasing dose” and the “mean t1/2” value fell in the range of 20 to 33 h. The Tmax in data set [1] (oral) amounted to 7 h. Also, the “plasma concentrations and PK parameters” value in data set [2] (after 12th daily 240-mg dose of ETC-1002 with single dose simvastatin 20 mg, pravastatin 40 mg or rosuvastatin 10 mg) is on record as “consistent with those in previous monotherapy studies”.
On to `CC(C)(CCCCCC(O)CCCCCC(C)(C)C(=O)O)C(=O)O` [ETC-1002, 8-hydroxy-2,2,14,14 tetramethylpentadecanedioic acid], for which, in data set [3], the LDL-C entry was “lowered”, the “high-density lipoprotein cholesterol (HDL-C)” value is “increased” and the “triglycerides (TGs)” value is given as “lowered”. Also, the “risks for patients identified in safety pharmacology” value in data set [4] is listed as “did not identify any significant risks”. Moreover, the “central nervous system, respiratory, or cardiovascular liabilities” value in data set [5] (oral, up to 12 months, mice, rats, monkeys) is given as “No significant central nervous system, respiratory, or cardiovascular liabilities have been identified”. Further, the “target organs in repeat-dose studies” value in [5] (rats and monkeys, changes reversible following cessation of treatment) is “liver and kidney”. For the same molecule, the no observed adverse effect level (NOAEL) at 6 months in data set [6] came to 30 mg/kg/day. Moreover, the NOAEL at 12 months in data set [7] amounted to 60 mg/kg/day. Besides, in data set [8], the clastogenicity result is on record as “non-clastogenic” and the mutagenicity entry was “non-mutagenic”. Moreover, in data set [9], the “inhibition or induction of major CYP enzymes” value was “neither an inhibitor nor inducer”. For the same molecule, the “inhibition of major drug transporters” value in [10] is “does not appear to inhibit”. Further, the “LDL-C, placebo-adjusted LS means for percent change from baseline” value in data set [11] (180 mg on top of stable statin therapy) was ~22%. In addition, in [11] (ETC-1002 180 mg monotherapy), the “LDL-C, placebo-adjusted LS means for percent change from baseline” value is given as “approximately 32%”. Besides, the “non-HDL-C, TC, LDL particle number and apoB” value in [11] (accompanying reduced LDL-C) was “corresponding reductions”. The “effect on HDL-C and TGs” value in data set [11] (in vivo) is listed as “generally neutral”. For the same molecule, the Cmax dose proportionality entry in data set [1] (human, in vivo) is listed as “increase in proportion to increasing dose”. The time to peak (Tmax) in [1] (human, in vivo, oral, read-out: Tmax) is < 4 h. The half-life in data set [1] (human, in vivo, oral, read-out: mean t1/2) is 15 to 27 h. Further, in data set [1] (up to 120 mg daily, linear from 140 to 220 mg daily doses), the “systemic exposure, AUCtau,ss, dose proportionality” value is recorded as “slightly more than dose-proportional increase”. In addition, the drug interaction result in data set [12] (combination of ETC-1002 and Ortho-Novum 1/35 (combined oral contraceptive)) is given as “No drug interaction”. In data set [12] (combination of ETC-1002 and metformin), the drug interaction entry was “No drug interaction”. The food effect result in data set [13] is reported as “can be taken without regard to food”. Also, the LDL-C lowering result in [14] (ETC-1002 in combination with atorvastatin 10 mg vs atorvastatin alone) is “incremental LDL-C lowering beyond atorvastatin alone”. Besides, in [15], the QT interval duration result is given as “does not prolong”; the “change in QTc” value was “no significant change”; the “effect on heart rate and PR and QRS intervals” value was “no clinically significant effect”. In data set [16] (ETC-1002 120 mg group, Study 1002-008, Study Day 98, considered possibly related to study drug), the deaths entry is “One patient died with cause unknown”. Besides, in data set [16] (human, in vivo), the “frequency of TEAEs, SOC infections and infestations” value is 11.6-25%; the “patients experiencing at least 1 TEAE” value was found to be 75.6%. In [16] (in vivo), the “dose-related trends in the frequency of TEAEs” value is “there did not appear to be any dose-related trends”, the “dose-related trends in the frequency of myalgia” value is reported as “no dose-related trends”, the “muscle-related SAEs” value was “no muscle-related SAEs” and the “other measures of safety including laboratory results” value was “no clinically significant trends”. Besides, in data set [16] (in vivo), the reports of rhabdomyolysis result is “no reports” and the safety profile entry is “excellent safety profile”.
As for `CC(C)c1c(C(=O)Nc2ccccc2O)c(-c2ccccc2)c(-c2ccc(F)cc2)n1CC[C@@H](O)C[C@@H](O)CC(=O)O` [ortho-hydroxy atorvastatin], in [14] (10 mg atorvastatin plus 120 mg ETC-1002 daily vs 10 mg atorvastatin alone), the “higher exposure than atorvastatin alone” value is “approximately 60%”. In data set [14] (10 mg atorvastatin plus ETC-1002 240 mg), the “exposure versus atorvastatin alone” value is “higher exposure”.
As for `CCC(C)(C)C(=O)O[C@H]1C[C@@H](C)C=C2C=C[C@H](C)[C@H](CC[C@@H]3C[C@@H](O)CC(=O)O3)[C@H]21` [simvastatin, reference compound], the “exposure (AUC0-inf) increased” value in data set [2] (single dose simvastatin 20 mg with steady-state ETC-1002 240 mg vs simvastatin alone, healthy subjects) is 29%.
